# Read-outs that look alike come from different tables or passages of the source.
# Tested on: patients of the REDUCE-IT and earlier EPA placebo-controlled trials
# Assay type: in vivo, human
# Settings: for Placebo-Adjusted % Change / ARR / NNT / Risk Ratio (95% CI): R-I
# [1] = Hematocrit shift: normal to high (Day 120)
# [2] = Hematocrit shift: normal to high (Day 360)
# [3] = Hematocrit shift: normal to high (Day 720)
# [4] = Hematocrit shift: normal to high (Day 1080)
# [5] = Hematocrit shift: normal to high (Day 1440)
# [6] = Hematocrit shift: normal to high (Day 1800)
# [7] = Hematocrit shift: normal to low (Day 120)
# [8] = Hematocrit shift: normal to low (Day 360)
# [9] = Hematocrit shift: normal to low (Day 720)
# [10] = Hematocrit shift: normal to low (Day 1080)
# [11] = Hematocrit shift: normal to low (Day 1440)
# [12] = Hematocrit shift: normal to low (Day 1800)
# [13] = Hemoglobin shift: normal to high (Day 120)
# [14] = Hemoglobin shift: normal to high (Day 360)
# [15] = Hemoglobin shift: normal to high (Day 720)
# [16] = Hemoglobin shift: normal to high (Day 1080)
# [17] = Hemoglobin shift: normal to high (Day 1440)
# [18] = Hemoglobin shift: normal to high (Day 1800)
# [19] = Hemoglobin shift: normal to low (Day 120)
# [20] = Hemoglobin shift: normal to low (Day 360)
# [21] = Hemoglobin shift: normal to low (Day 720)
# [22] = Hemoglobin shift: normal to low (Day 1080)
# [23] = Hemoglobin shift: normal to low (Day 1440)
# [24] = Hemoglobin shift: normal to low (Day 1800)
structure (smiles),measurement,setting,value
"CC/C=C\C/C=C\C/C=C\C/C=C\C/C=C\CCCC(=O)OCC [icosapent ethyl, eicosapentaenoic acid ethyl ester]",Placebo-Adjusted % Change,Hematocrit (Day 360),+.78%
same,Placebo-Adjusted % Change,Hematocrit (Day 720),+1.28%
same,Placebo-Adjusted % Change,Hematocrit (Day 1080),+1.59%
same,Placebo-Adjusted % Change,Hematocrit (Day 1440),+1.86%
same,ARR,[1],0.4%
same,NNT,[1],−234
same,Risk Ratio (95% CI),[1],1.507 (0.952 to 2.386) −2
same,ARR,[2],0.3%
same,NNT,[2],−364
same,Risk Ratio (95% CI),[2],1.273 (0.811 to 1.999) −2
same,ARR,[3],0.2%
same,NNT,[3],−566
same,Risk Ratio (95% CI),[3],1.181 (0.724 to 1.927) −1
same,ARR,[4],0.4%
same,NNT,[4],−282
same,Risk Ratio (95% CI),[4],1.433 (0.826 to 2.487) −2
same,ARR,[5],0.7%
same,NNT,[5],−138
same,Risk Ratio (95% CI),[5],2.208 (1.155 to 4.221) −3
same,ARR,[6],0.3%
same,NNT,[6],−354
same,Risk Ratio (95% CI),[6],1.420 (0.582 to 3.462) −2
same,ARR,[7],−0.4%
same,NNT,[7],228
same,Risk Ratio (95% CI),[7],0.828 (0.612 to 1.120) 1
same,ARR,[8],−0.6%
same,NNT,[8],158
same,Risk Ratio (95% CI),[8],0.784 (0.583 to 1.054) 2
same,ARR,[9],−1.1%
same,NNT,[9],90
same,Risk Ratio (95% CI),[9],0.747 (0.579 to 0.964) 2
same,ARR,[10],−2.2%
same,NNT,[10],45
same,Risk Ratio (95% CI),[10],0.607 (0.469 to 0.785) 2
same,ARR,[11],−2.1%
same,NNT,[11],47
same,Risk Ratio (95% CI),[11],0.650 (0.500 to 0.845) 2
same,ARR,[12],−0.9%
same,NNT,[12],111
same,Risk Ratio (95% CI),[12],0.859 (0.627 to 1.179) 1
same,Placebo-Adjusted % Change,Hemoglobin (Day 120),+.53%
same,Placebo-Adjusted % Change,Hemoglobin (Day 360),+1%
same,Placebo-Adjusted % Change,Hemoglobin (Day 720),+1.51%
same,Placebo-Adjusted % Change,Hemoglobin (Day 1080),+2.09%
same,Placebo-Adjusted % Change,Hemoglobin (Day 1440),+2.36%
same,ARR,[13],0.3%
same,NNT,[13],−313
same,Risk Ratio (95% CI),[13],1.668 (0.915 to 3.042) −2
same,ARR,[14],−0.1%
same,NNT,[14],961
same,Risk Ratio (95% CI),[14],0.908 (0.571 to 1.442) 1
same,ARR,[15],0.2%
same,NNT,[15],−491
same,Risk Ratio (95% CI),[15],1.144 (0.760 to 1.721) −1
same,ARR,[16],1.0%
same,NNT,[16],−103
same,Risk Ratio (95% CI),[16],2.241 (1.330 to 3.778) −3
same,ARR,[17],0.7%
same,NNT,[17],−145
same,Risk Ratio (95% CI),[17],1.829 (1.036 to 3.229) −3
same,ARR,[18],0.4%
same,NNT,[18],−240
same,Risk Ratio (95% CI),[18],1.383 (0.686 to 2.788) −2
same,ARR,[19],0.0%
same,NNT,[19],−2370
same,Risk Ratio (95% CI),[19],1.013 (0.787 to 1.303) −1
same,ARR,[20],−0.7%
same,NNT,[20],134
same,Risk Ratio (95% CI),[20],0.828 (0.652 to 1.051) 1
same,ARR,[21],−1.1%
same,NNT,[21],93
same,Risk Ratio (95% CI),[21],0.815 (0.657 to 1.011) 1
same,ARR,[22],−2.3%
same,NNT,[22],44
same,Risk Ratio (95% CI),[22],0.703 (0.570 to 0.868) 2
same,ARR,[23],−2.7%
same,NNT,[23],37
same,Risk Ratio (95% CI),[23],0.685 (0.553 to 0.849) 2
same,ARR,[24],−1.5%
same,NNT,[24],67
same,Risk Ratio (95% CI),[24],0.827 (0.630 to 1.085) 1
same,ARR,Lymphocytes: PCS High >45%,2.7%
same,NNT,Lymphocytes: PCS High >45%,−38
same,Risk Ratio (95% CI),Lymphocytes: PCS High >45%,1.543 (1.296 to 1.838) −2
same,ARR,Lymphocytes: PCS Low <30%,−6.3%
same,NNT,Lymphocytes: PCS Low <30%,16
same,Risk Ratio (95% CI),Lymphocytes: PCS Low <30%,0.924 (0.904 to 0.945) 1
same,Placebo-Adjusted % Change,Neutrophils (Day 120),+1.11%
same,Placebo-Adjusted % Change,Neutrophils (Day 360),−3%
same,Placebo-Adjusted % Change,Neutrophils (Day 720),−4.7%
same,Placebo-Adjusted % Change,Neutrophils (Day 1080),−4.52%
same,Placebo-Adjusted % Change,Neutrophils (Day 1440),−3.06%
same,Placebo-Adjusted % Change,Neutrophils/Leukocytes (Ratio) (Day 120),−2.06%
same,Placebo-Adjusted % Change,Neutrophils/Leukocytes (Ratio) (Day 360),−3.87%
same,Placebo-Adjusted % Change,Neutrophils/Leukocytes (Ratio) (Day 720),−4.61%
same,Placebo-Adjusted % Change,Neutrophils/Leukocytes (Ratio) (Day 1080),−4.21%
same,Placebo-Adjusted % Change,Neutrophils/Leukocytes (Ratio) (Day 1440),−4.1%
same,AR: ALP >2x ULN (AE table),"human, in vivo",0.6%
same,AR: ALP > ULN (AE table),"human, in vivo",9.8%
same,AR: Blood uric acid increased (AE table),"human, in vivo",1.0%
same,AR: Gout (AE table),"human, in vivo",3.6%
same,AR: Hepatomegaly (AE table),"human, in vivo",0.4%
same,AR: Hyperuricemia (AE table),"human, in vivo",0.6%
same,AR: Spleen disorders (AE table),"human, in vivo",0.3%
same,AR: Splenomegaly (AE table),"human, in vivo",0.2%
same,ARR: ALP >2x ULN (AE table),"human, in vivo",−0.3%
same,ARR: ALP > ULN (AE table),"human, in vivo",−4.5%
same,ARR: Blood uric acid increased (AE table),"human, in vivo",0.1%
same,ARR: Gout (AE table),"human, in vivo",1.1%
same,ARR: Hepatomegaly (AE table),"human, in vivo",−0.4%
same,ARR: Hyperuricemia (AE table),"human, in vivo",0.3%
same,ARR: Spleen disorders (AE table),"human, in vivo",−0.3%
same,ARR: Splenomegaly (AE table),"human, in vivo",−0.1%
same,Lab Reported Events: % of subjects,"human, in vivo",(79.9) %
same,Lab Reported Events: number of subjects,"human, in vivo",3269
same,NNT: ALP >2x ULN (AE table),"human, in vivo",341
same,NNT: ALP > ULN (AE table),"human, in vivo",22
same,NNT: Blood uric acid increased (AE table),"human, in vivo",−680
same,NNT: Gout (AE table),"human, in vivo",−93
same,NNT: Hepatomegaly (AE table),"human, in vivo",256
same,NNT: Hyperuricemia (AE table),"human, in vivo",−292
same,NNT: Spleen disorders (AE table),"human, in vivo",372
same,NNT: Splenomegaly (AE table),"human, in vivo",682
same,Platelet Count: PCS High >500 × 10^3/uL,"human, in vivo",16 (0.4%) n(%)
same,Platelet Count: PCS High >500 × 10^3/uL: % of subjects,"human, in vivo",(0.4) %
same,Platelet Count: PCS High >500 × 10^3/uL: number of subjects,"human, in vivo",16
same,Platelet Count: PCS Low <100 × 10^3/uL,"human, in vivo",19 (0.5%) n(%)
same,Platelet Count: PCS Low <100 × 10^3/uL: % of subjects,"human, in vivo",(0.5) %
same,Platelet Count: PCS Low <100 × 10^3/uL: number of subjects,"human, in vivo",19
same,Risk Ratio (95% CI): ALP >2x ULN (AE table),"human, in vivo",0.600 (0.335 to 1.075) 2
same,Risk Ratio (95% CI): ALP > ULN (AE table),"human, in vivo",0.624 (0.545 to 0.714) 2
same,Risk Ratio (95% CI): Blood uric acid increased (AE table),"human, in vivo",1.154 (0.753 to 1.768) −1
same,Risk Ratio (95% CI): Gout (AE table),"human, in vivo",1.347 (1.075 to 1.687) −2
same,Risk Ratio (95% CI): Hepatomegaly (AE table),"human, in vivo",0.304 (0.131 to 0.709) 4
same,Risk Ratio (95% CI): Hyperuricemia (AE table),"human, in vivo",1.737 (0.990 to 3.050) −3
same,Risk Ratio (95% CI): Spleen disorders (AE table),"human, in vivo",0.353 (0.139 to 0.894) 4
same,Risk Ratio (95% CI): Splenomegaly (AE table),"human, in vivo",0.400 (0.126 to 1.275) 3
same,WBC Differential (Lymphocytes): PCS High >45%: % of subjects,"human, in vivo",(7.4) %
same,WBC Differential (Lymphocytes): PCS High >45%: number of subjects,"human, in vivo",301
same,WBC Differential (Lymphocytes): PCS Low <30%: % of subjects,"human, in vivo",(75.0) %
same,WBC Differential (Lymphocytes): PCS Low <30%: number of subjects,"human, in vivo",3067
same,WBC Differential (Monocytes): PCS High >6%,"human, in vivo",3101 (78.0%) n(%)
